{"source": "patent US20140135499A1", "about": "“METHODS FOR THE TOTAL CHEMICAL […] OF ENANTIOMERICALLY-PURE 7-(2'-[…]) ETHYL CAMPTOTHECIN” (BioNumerik Pharmaceuticals, Inc., priority 2012, published 2014)", "key": {"[1]": {"tested_on": "angiogenesis (neovascularization)", "conditions": "mice cornea model; dose levels of 210 mg/kg; cited from earlier work"}, "[2]": {"tested_on": "Wild type human ovarian cancer cells (A2780/WT)", "test": "SRB cytotoxicity assay, inhibition of cell growth, A2780/WT", "type": "cell-based", "conditions": "2 hour treatment, SRB assay at 5 days", "procedure": "(§1) Wild type human ovarian cancer cells (A2780/WT) and doxorubicin resistant human ovarian cancer cells (A2780/DX5) were cultured in RPMI 1640 medium supplemented with 10% fetal bovine serum and 2 mM glutamine, and grown in a 37° C. incubator with 5% CO2. BNP1350 synthesized from camptothecin natural product (purchased from APAC) and BNP1350 synthesized via the Total Synthesis Scheme at BioNumerik Pharmaceuticals, Inc. were dissolved in DMSO for use in cytotoxicity experiments where inhibition of cell growth was measured using the SRB assay. Briefly, cells were seeded (450 cells/well in 100 μL volume) in a 96-well microtiter plates and allowed to attach for 24 hours prior to treatment with either natural product BNP1350 or total synthesis BNP1350 for 2 hours. Following this 2 hour treatment, BNP1350 was removed, the cells were washed with drug-free media (200 μL), and then drug-free media (200 μL) was added to the cells which were allowed to continue growing at 37° C. with 5% CO2 before the SRB assay was performed (total experimental time from the time of initial seeding was 5 days, during which 5 cell doublings occurred)."}, "[3]": {"tested_on": "panel of over twenty (20) human cancer cell lines", "test": "In vitro studies on a panel of human cancer cell lines", "type": "cell-based", "excerpt": "In contrast, Karenitecin is a highly lipophilic camptothecin derivative characterized by substantial lactone stability and long plasma half-life. […] The free drug concentration in blood plasma is generally considered to be the pharmacologically active form in clinical pharmacology."}, "[4]": {"tested_on": "doxorubicin resistant human ovarian cancer cells (A2780/DX5)", "test": "SRB cytotoxicity assay, inhibition of cell growth, A2780/DX5", "type": "cell-based", "conditions": "for IC50: A2780/DX5, 2 hour treatment, SRB assay at 5 days; for Resistance Factor Ratio A2780/DX5 IC50/A2780WT IC50: ratio of average IC50 values", "procedure": "as §1"}, "[5]": {"conditions": "sodium hydroxide formulation, hydrolysed E-ring; cited from earlier work"}}, "note": "Read-outs that look alike come from different tables or passages of the source."}
{"smiles": "CCc1c2c(nc3ccc(OC(=O)N4CCC(N5CCCCC5)CC4)cc13)-c1cc3c(c(=O)n1C2)COC(=O)[C@]3(O)CC", "note": "[Irinotecan, 7-ethyl-10-[4-(1-piperidino)-1-piperidino]carbonyloxy camptothecin]", "values": [{"measurement": "neovascularization", "setting": "[1]", "value": "significant reduction"}]}
{"smiles": "CC[C@@]1(O)C(=O)OCc2c1cc1n(c2=O)Cc2c-1nc1ccccc1c2CC[Si](C)(C)C", "note": "[Total Synthesis BNP1350, (4S)-4-ethyl-4-hydroxy-11-[2-(trimethylsilyl)ethyl]-1H-pyrano[3′:4′:6,7]indolizino[1,2-b]quinoline-3,14(4H,12H)-dione]", "values": [{"measurement": "IC50", "setting": "[2]; Test 1, listed as Natural Product BNP1350, read-out: IC50 (nM) A2780/WT, Test 1", "value": 6.7, "unit": "nM"}, {"measurement": "IC50", "setting": "[2]; Test 1, read-out: IC50 (nM) A2780/WT, Test 1", "value": 6, "unit": "nM"}, {"measurement": "IC50", "setting": "[2]; Test 2, listed as Natural Product BNP1350, read-out: IC50 (nM) A2780/WT, Test 2", "value": 5.4, "unit": "nM"}, {"measurement": "IC50", "setting": "[2]; Test 2, read-out: IC50 (nM) A2780/WT, Test 2", "value": 6.8, "unit": "nM"}, {"measurement": "IC50", "setting": "[2]; average of Test 1 and Test 2, listed as Natural Product BNP1350, read-out: IC50 (nM) A2780/WT, Average", "value": 6.1, "unit": "nM"}, {"measurement": "IC50", "setting": "[2]; average of Test 1 and Test 2, read-out: IC50 (nM) A2780/WT, Average", "value": 6.4, "unit": "nM"}, {"measurement": "antitumor potency compared with Topotecan or SN-38", "setting": "[3]", "value": "significantly more potent"}, {"measurement": "IC50", "setting": "[4]; Test 1, listed as Natural Product BNP1350, read-out: IC50 (nM) A2780/DX5, Test 1", "value": 8.9, "unit": "nM"}, {"measurement": "IC50", "setting": "[4]; Test 1, read-out: IC50 (nM) A2780/DX5, Test 1", "value": 11.9, "unit": "nM"}, {"measurement": "IC50", "setting": "[4]; Test 2, listed as Natural Product BNP1350, read-out: IC50 (nM) A2780/DX5, Test 2", "value": 11.6, "unit": "nM"}, {"measurement": "IC50", "setting": "[4]; Test 2, read-out: IC50 (nM) A2780/DX5, Test 2", "value": 11.7, "unit": "nM"}, {"measurement": "IC50", "setting": "[4]; average of Test 1 and Test 2, listed as Natural Product BNP1350, read-out: IC50 (nM) A2780/DX5, Average", "value": 10.3, "unit": "nM"}, {"measurement": "IC50", "setting": "[4]; average of Test 1 and Test 2, read-out: IC50 (nM) A2780/DX5, Average", "value": 11.8, "unit": "nM"}, {"measurement": "Resistance Factor Ratio A2780/DX5 IC50/A2780WT IC50", "setting": "[4]", "value": 1.8}, {"measurement": "Resistance Factor Ratio A2780/DX5 IC50/A2780WT IC50", "setting": "[4]; listed as Natural Product BNP1350", "value": 1.7}]}
{"smiles": "CC[C@@](O)(C(=O)O)c1cc2n(c(=O)c1CO)Cc1cc3ccccc3nc1-2", "note": "[carboxylate form of CPT]", "values": [{"measurement": "anti-tumor potency relative to non-hydrolyzed lactone form of CPT", "setting": "[5]", "value": "one-tenth or less"}]}
